Test results: US10946012B2, “Methods for inducing tumor regression, inhibiting tumor growth, and inducing apoptosis in breast tumors with geranylgeranyltransferase I inhibitors” (H. Lee Moffitt Cancer Center and Research Institute, Inc., priority 2009, dated 2021)

Tests used:
[1] = system: p27; test: Immunofluorescence of p27 in MDA-MB-468 cells; assay type: cell-based, human; settings: 50 μM, 48 h
Experimental: MDA-MB-468 cells were plated on a glass coverslip and treated with 50 μM GGTI-2417 or DMSO as a control for 48 h. Medium was aspirated and the cells were washed twice with ice-cold sterile DPBS solution (Invitrogen, Carlsbad, Calif.), fixed with 4% paraformaldehyde at room temperature for 15 min, and then treated with 1% Nonidet P-40 for 30 min at room temperature. After blocking with 5% bovine serum albumin for 30 min at room temperature, cells were incubated with anti-p27 antibody (1:500) at room temperature for 1 h. After washing three times with DPBS solution, cells were incubated with FITC-conjugated secondary antibody (1:1000) for 1 h at room temperature. Cells were then washed three times with sterile DPBS solution, mounted using Vectashield mounting reagent (Vector Laboratories, Inc., Burlingame, Calif.) containing 4′,6′-diamidino-2-phenylindole (DAPI) for nuclear visualization, and analyzed using a Zeiss Axiovert Z-1 Imager microscope (Carl Zeiss, Oberkochen, Germany) at […]. Images were analyzed using ImagePro Plus 6.2 (Media Cybernetics, Bethesda, Md.).

[2] = system: p27 null MEFs; test: Trypan Blue exclusion assay in p27 null MEFs; assay type: cell-based, mouse; settings: 50 μM, 72 h
Experimental: (§1) Human MDA-MB-468 and MDA-MB-231 breast cancer cells and murine NIH 3T3 cells were obtained from the ATCC and cultured in DMEM medium. Human SK-Br3 and BT-474 breast cancer cells (ATCC) were cultured in McCoy's 5a medium and Hybri-Care medium, respectively. Mouse embryonic fibroblast (MEF) cells from p27 wild-type and p27 null mice were grown in DMEM. All media were supplemented with 10% fetal calf serum, 10 units/ml penicillin, and 10 μg/ml streptomycin. Subconfluent cells were treated with different concentrations of GGTI, FTI or DMSO vehicle for specific time periods. After treatment, cells were harvested by trypsinization.
(§2) Adherent cells were harvested by trypsinization and diluted with 0.4% Trypan Blue dye and counted on a hemacytometer. Cells excluding the dye were scored as live cells, whereas cells absorbing the dye were scored as dead cells. Cell proliferation was determined by dividing the number of live cells in the treated sample by the number of live cells in the control, and the degree of cell death was expressed as percentage of dead cells of the total cell number.

[3] = system: MDA-MB-231, SK-Br3 and BT-474 breast cancer cells; test: Effects in other human breast cancer cell lines; assay type: cell-based; settings: 50 μM; all three cell lines
Experimental: as §1
To prepare whole cell lysates, cells were trypsinized, washed with phosphate buffered saline (PBS) twice, and lysed in 30 mM Hepes, pH 7.5, 10 mM NaCl, 5 mM MgCl2, 25 mM NaF, 1 mM EGTA, 1% Triton-X-100, 10% glycerol, protease inhibitor cocktail, 2 mM PMSF, 2 mM Na3VO4, and 6.4 mg/ml p-nitrophenylphosphate. […] The protein concentration was determined by the Bradford assay. […] Select bands were quantified using AlphaEaseFC densitometry software (AlphaInnotech, San Leandro, Calif.).
Adherent cells were harvested by trypsinization and diluted with 0.4% Trypan Blue dye and counted on a hemacytometer. Cells excluding the dye were scored as live cells, whereas cells absorbing the dye were scored as dead cells. […]

[4] = system: p27 wild-type MEFs; test: Trypan Blue exclusion assay in p27 wild-type MEFs; assay type: cell-based, mouse; settings: 50 μM, 72 h, p27 wt MEFs
Experimental: as §1, §2

[5] = system: Rap1 geranylgeranylation; test: Rap1 geranylgeranylation in H-Ras transformed NIH 3T3 cells (Western blot); assay type: cell-based, murine; settings: H-Ras/3T3 cells
Experimental: as §1
To prepare whole cell lysates, cells were trypsinized, washed with phosphate buffered saline (PBS) twice, and lysed in 30 mM Hepes, pH 7.5, 10 mM NaCl, 5 mM MgCl2, 25 mM NaF, 1 mM EGTA, 1% Triton-X-100, 10% glycerol, protease inhibitor cocktail, 2 mM PMSF, 2 mM Na3VO4, and 6.4 mg/ml p-nitrophenylphosphate. Lysates were cleared by centrifugation at 12,000×g for 15 min, and the supernatants were collected as whole cell extracts. The protein concentration was determined by the Bradford assay. […] Select bands were quantified using AlphaEaseFC densitometry software (AlphaInnotech, San Leandro, Calif.). […]

[6] = system: MDA-MB-231 breast cancer tumors; test: Anti-tumor activity in the nude mouse tumor xenograft model; assay type: in vivo, nude mice; settings: 100 mg/kg daily i.p.
Experimental: Nude mice (nu/nu, Charles River, Wilmington, Mass.) were maintained in accordance with the Institutional Animal Care and Use Committee (IACUC) procedures and guidelines. MDA-MB-231 cells were harvested via trypsinization, pelleted at 805×g for 5 min, and re-suspended in a 50:50 mixture of sterile PBS and Matrigel (BD Biosciences) at 10×10^6 cells per 100 μl. A volume of 100 μl (˜10×10^6 cells) was injected orthotopically into the upper mammary fat pads of nude mice. The tumor xenografts were monitored by electronic caliper measurements and tumor volume (V) was calculated using the formula V=W^2L/2, where width (W) is […]. When the tumors reached ˜100 mm^3, the animals were randomized and injected intraperiteoneally daily with vehicle (70% DMSO), or 100 mg/kg GGTI-2417 or GGTI-2418, or every third day with GGTI-2418 (200 mg/kg. Tumors were measured every third day for 12-18 days.

[7] = system: MDA-MB-468 breast cancer cells; test: Cell cycle analysis in MDA-MB-468 cells; assay type: cell-based, human; settings: 50 μM, control 51%
Experimental: Cell cycle analysis based on DNA content was performed as described previously. Liang, J., et al., PKB/Akt phosphorylates p27, impairs nuclear import of p27 and opposes p27-mediated G1 arrest, Nat Med 8:1153-60 (2002). At each time point, cells were harvested, counted, and washed twice with PBS. Cells (2-3×10^6) were suspended in 0.5 ml PBS, fixed in 5 ml of 70% ethanol overnight at −20° C., centrifuged, re-suspended again in 1 ml of propidium iodide staining solution (50 μg/ml propidium iodide, 100 units/ml RNase A and 1 mg/ml of glucose in PBS), and incubated at room temperature for 30 min. The cells were then analyzed for cell cycle distribution using FACScan (BD Biosciences) and ModFit LT cell cycle analysis software (Verity Software, Topsham, Me.).

Compound: COC(=O)[C@H](CC(C)C)NC(=O)N1CCN(Cc2nc[nH]c2C)C(=O)[C@@H]1Cc1ccccc1 [GGTI-2417]
- cytosolic p27 levels [1]: not affected significantly
- increase of nuclear levels of p27 [1]: 6 fold
- inhibition of proliferation ([2]; MEFs lacking p27): 61.6±8.1%
- cell death ([2]; p27 null MEFs, basal 27.5±2.1%): did not increase the number of dead cells
- cell proliferation [3]: inhibited cell proliferation
- p27 protein levels [3]: induced p27 protein levels
- inhibition of proliferation [4]: 89.0±3.1%
- cell death ([4]; vehicle 22.4±7.2%): 53.4±7.0%
- selectivity for inhibition of cellular GGTase I compared to FTase [5]: > 125 fold
- IC50 ([5]; 48 h, read-out: IC50, inhibition of Rap1 geranylgeranylation): 400 ± 100 nM
- tumor growth inhibition [6]: 76%
- fraction of cells in G0/G1 [7]: 78%
